Measurements taken from publication PMC12392461, “Beyond Estrogenicity: A Comparative Assessment of Bisphenol A and Its Alternatives in In Vitro Assays Questions Safety of Replacements” (Environmental Science & Technology, 2025).
Read-outs that look alike come from different tables or passages of the source.

Columns and labels:
[1] = Abiotic CYP (aCYP) oxidation, remaining parent compound (Cparent-Ratio); details: for Cparent-Ratio Rep.1 %: Table S9, replicate 1; for Cparent-Ratio Rep.2 %: Table S9, replicate 2
Description: The mixtures were adjusted to a final volume of 100 μL with acetonitrile (ACN). The reaction mix was incubated for 15 min at 30 °C and 1000 rpm on a Bioshake iQ orbital shaker from QInstruments (Jena, Germany). Additionally, a mixture without test compounds was prepared as a control. Subsequently, 10 μL of the reaction mixture was transferred into a conical dosing vial and evaporated under a nitrogen flow.
For chemical analysis, 10 μL of the reaction mixture was concentrated under vacuum (CentriVap, Labconco, Kansas City, MO, USA), diluted to 1 mg/L in ACN or ethyl acetate. The chemical analysis of the reaction mixtures was performed using liquid chromatography (LC) and gas chromatography (GC) coupled with various detection techniques, preferably Multiple Reaction Monitoring (MRM). Data acquisition and processing were carried out using the software MassHunter. Quantification was based on external calibrations.
The Cparent-Ratio quantifies the extent of oxidation of the parent compound after the abiotic CYP reaction. It was calculated as the ratio of the parent compound concentration after oxidation (C parent, after oxidation) to its concentration before oxidation (C parent, before oxidation) as shown in eq . […] 8 Cparent‐Ratio=Cparent,after oxidation/Cparent,before oxidation

H4IIe (AhR CALUX) = details: for Toxic ratio (TR) TRAhR: against baseline cytotoxicity; for IC10, H4IIe, AhR: H4IIe (AhR assay cells)
Summary of the method: (§1)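 Cells were seeded and incubated 24 h, then dosed with 11-step serial dilutions of each chemical in duplicate (methanol below 1%). Confluency was imaged before and after a further 24 h at 37 °C. IC10 from this viability served as the cut-off for deriving effect concentrations.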

HEK293H (PPARγ) = details: for IC10, linear: linear model; for Toxic ratio (TR) TRPPARγ: against baseline cytotoxicity; for IC10, HEK293, PPARγ: cytotoxicity, HEK293 (PPARγ assay cells)
Summary of the method: as §1

HEK293T (ERα) = details: for Toxic ratio (TR) TRERα: against baseline cytotoxicity; for IC10, HEK293, ERα: HEK293 (ERα assay cells)
Summary of the method: as §1

[2] = test system: ERα-UAS-bla GripTite cells
Description: Cell culture conditions and bioassay protocols including response detection are provided in Text S2.1–2.4 and Table S3. − Cell viability was determined from cell confluency using an IncuCyte S3 Live-Cell Analysis System (Sartorius AG, Essen, Germany) before and after exposure, except for SH-SY5Y cells (live–dead staining with Nuclear Green LcS1 and propidium iodide, Abcam, UK). For metabolic activation experiments, cell viability was assessed using the ToxBLAzer DualScreen Kit (Thermo Fisher Scientific) to capture the remaining toxicity in ERα-UAS-bla GripTite after treatment with the aCYP catalyst (details in Text S2.4). […]
The TK-Ratio method was used to evaluate the impact of abiotic CYP oxidation on the potency of tested compounds. […]
For experiments with the preceding aCYP activation, ERα cell viability was additionally calculated from the readout of the ToxBLAzer reagent. The ToxBLAzer assay was conducted following the manufacturer's instructions (Thermo Fisher, Waltham, MA, U.S.).13 Fluorescence intensity was recorded at the start of the assay ( Fwavelength(0h)) and after a 2-hour incubation at […]
eq. S11 for normalization.
Cell viability = F665nm(2h, sample)-F665nm(0h, average cell-free) (S11) F665nm(2h, average unexposed)-F665nm(0h, average cell-free) […]
the specific endpoint to avoid artifacts from cytotoxicity burst. 15
S2.5: Concentration-response curves (CRCs)
To avoid bias from cytotoxicity burst at higher concentrations, all concentrations exceeding the IC10 for cytotoxicity were excluded in the CRC modeling of effects but otherwise cytotoxicity and effects were fitted with the same model equations (response stands for cytotoxicity or effect). For ERα, AhR, ARE and PPARγ preferably a linear model was fitted to the linear portion of CRC up to maximum 30% effect (eq. S12),16 but in some cases it was necessary to choose a sigmoidal log-concentration-response model, specifically a log-logistic model (eq. S13), to derive effect concentrations and cytotoxicity. […]
This was done using the
AutomatedBioassayScreening19 published by Braun et al.,20 which also included an algorithm to choose the best model between eq. S12 and eq. S13.
Response (%) = slope × C (S12) […]
logEC =logEC − 1 ∙log (max−min − 100%) (S14)

[3] = Table S9, loss of parent after aCYP oxidation
[4] = Table S9, mean of two replicate experiments
[5] = Table S9, replicate 1, as fraction
[6] = Table S9, replicate 2, as fraction
[7] = Bioassay AhR, cytotoxicity, dosing range all
[8] = Bioassay AhR, cytotoxicity, dosing range all, linear model fit
[9] = Bioassay AhR, cytotoxicity, dosing range all, log-logistic model fit
[10] = PPARγ bioassay cytotoxicity, dosing range all
[11] = PPARγ bioassay cytotoxicity, dosing range all, log-logistic model
[12] = Bioassay ERα, cytotoxicity, dosing range all
[13] = Bioassay ERα, cytotoxicity, dosing range all, linear model fit
[14] = Bioassay ERα, cytotoxicity, dosing range all, log-logistic model fit
[15] = Table S10, TKcytotoxicity-Ratio
[16] = Table S11, measured simultaneously with bioassay

| SMILES | % Loss [1, 3] | Cparent-Ratio Mean [1, 4] | Cparent-Ratio Rep.1 % [1] | Cparent-Ratio Rep.1 [1, 5] | Cparent-Ratio Rep.2 % [1] | Cparent-Ratio Rep.2 [1, 6] | IC10, linear transformed (H4IIe (AhR CALUX); [7]) | IC10, linear (H4IIe (AhR CALUX); [8]) | logIC10 (H4IIe (AhR CALUX); [9]) | Toxic ratio (TR) TRAhR (H4IIe (AhR CALUX)) | IC10, H4IIe, AhR (H4IIe (AhR CALUX); cytotoxicity) | IC10, linear transformed (HEK293H (PPARγ); [10]) | IC10, linear (HEK293H (PPARγ); [10]) | logIC10 (HEK293H (PPARγ); [11]) | Toxic ratio (TR) TRPPARγ (HEK293H (PPARγ)) | IC10, HEK293, PPARγ (HEK293H (PPARγ)) | IC10, linear transformed (HEK293T (ERα); [12]) | IC10, linear (HEK293T (ERα); [13]) | logIC10 (HEK293T (ERα); [14]) | Toxic ratio (TR) TRERα (HEK293T (ERα)) | further results |
| --- | --- | --- | --- | --- | --- | --- | --- | --- | --- | --- | --- | --- | --- | --- | --- | --- | --- | --- | --- | --- | --- |
| CC1(C)C(O)C(C)(C)C1O (racemic) [r-TMCD, 2,2,4,4-Tetramethyl-1,3-cyclobutanediol (racemate)] | 1.72% | 0.98 | 94.58% | 0.95 | 101.99% | 1.02 | 9.14E-03 | 8.29E-03 | -2.04 | 0.12 | 8290 µM | 6.71E-03 | no cytotoxicity | no cytotoxicity |  |  |  |  |  |  | IC10, linear (HEK293T (ERα); ERα bioassay cytotoxicity, dosing range all, linear model): no cytotoxicity; logIC10 (HEK293T (ERα); ERα bioassay cytotoxicity, dosing range all, log-logistic model): no cytotoxicity |
| CC(C)(c1ccc(OCC2CO2)cc1)c1ccc(OCC2CO2)cc1 (stereo not shown) [BADGE, Bisphenol A diglycidyl ether] |  |  |  |  |  |  |  | no cytotoxicity | no cytotoxicity |  |  | 1.49E-05 | no cytotoxicity | -4.62 | 0.42 | 24 µM | 1.08E-05 | no cytotoxicity | -4.73 | 0.54 | IC10, HEK293, ERα (HEK293T (ERα); cytotoxicity): 18.8 µM |
| CC(C)CC(C)(c1ccc(O)cc1)c1ccc(O)cc1 [BP-MIBK, 4,4'-(1,3-Dimethylbutylidene)diphenol] |  |  |  |  |  |  |  |  |  |  |  |  |  |  |  |  |  |  |  |  | TKcytotoxicity ([2]; human): 0.48; IC10, linear (H4IIe (AhR CALUX)): no cytotoxicity; logIC10 (H4IIe (AhR CALUX); rat, 24 h): -4.05; logIC10 (HEK293H (PPARγ); human, 24 h): -5.09; IC10, linear (HEK293T (ERα)): no cytotoxicity; logIC10 (HEK293T (ERα)): no cytotoxicity; logIC10 (HEK293T (ERα); human, 24 h): -5.04 |
| CC(C)c1cc(C(C)(C)c2ccc(O)c(C(C)C)c2)ccc1O [BPG, 2,2-Bis(4-hydroxy-3-isopropylphenyl)propane] | 15% | 0.85 | 67.85% | 0.68 | 102.05% | 1.02 | 2.43E-05 | 2.10E-05 | -4.61 | 0.25 | 21 µM | 3.91E-06 | 5.23E-06 | -5.19 | 0.22 | 6.46 µM | 5.99E-06 | no cytotoxicity | -5.16 | 0.21 | TKcytotoxicity [2, 15]: 0.62; TKcytotoxicity ([2]; Table S11, TKcytotoxicity-Ratio): 0.67; % Loss ([1]; Table S11): 34%; Cparent-Ratio Mean [1, 16]: 0.66; Cparent-Ratio Rep.1 [1, 16]: 0.79; Cparent-Ratio Rep.2 [1, 16]: 0.53; IC10, HEK293, ERα (HEK293T (ERα); cytotoxicity): 6.95 µM |
| CC(C)(c1ccc(O)c(-c2ccccc2)c1)c1ccc(O)c(-c2ccccc2)c1 [BPPH, 2,2-Bis(2-hydroxy-5-biphenylyl)propane] | 22% | 0.78 | 89.82% | 0.90 | 66.60% | 0.67 | 1.81E-05 | 1.29E-05 | -4.74 | 0.32 | 12.9 µM | 4.34E-06 | 8.25E-06 | -5.16 | 0.15 | 6.92 µM | 5.43E-06 | no cytotoxicity | -5.08 | 0.13 | TKcytotoxicity [2, 15]: 0.11; % Loss ([1]; Table S11): 22%; Cparent-Ratio Mean [1, 16]: 0.78; Cparent-Ratio Rep.1 [1, 16]: 0.78; Cparent-Ratio Rep.2 [1, 16]: 0.78; IC10, HEK293, ERα (HEK293T (ERα); cytotoxicity): 8.3 µM |
